Experimental data as given in US20170066759A1, “AROMATIC 5-MEMBERED HETEROCYCLIC DERIVATIVE HAVING TRPV4-INHIBITING ACTIVITY” (Shionogi & Co., Ltd., priority 2012, published 2017).
Read-outs that look alike come from different tables or passages of the source.

Target: T1, human TRPV4 (hTRPV4/CHO cells) (Homo sapiens, UniProt Q9HBA0)
T1 construct: expressed in transfected cells; host or cells: CHO-K1
Test: Test Example 1: TRPV4 inhibitory activity (IC50 value), 4α-PDD stimulation, Fluo4 calcium fluorescence (FLIPR TETRA)
Assay type: cell-based

[1] = Test Example 1, 4α-PDD stimulation, read-out: Test 1 IC50

T1 sequence (Q9HBA0 whole entry): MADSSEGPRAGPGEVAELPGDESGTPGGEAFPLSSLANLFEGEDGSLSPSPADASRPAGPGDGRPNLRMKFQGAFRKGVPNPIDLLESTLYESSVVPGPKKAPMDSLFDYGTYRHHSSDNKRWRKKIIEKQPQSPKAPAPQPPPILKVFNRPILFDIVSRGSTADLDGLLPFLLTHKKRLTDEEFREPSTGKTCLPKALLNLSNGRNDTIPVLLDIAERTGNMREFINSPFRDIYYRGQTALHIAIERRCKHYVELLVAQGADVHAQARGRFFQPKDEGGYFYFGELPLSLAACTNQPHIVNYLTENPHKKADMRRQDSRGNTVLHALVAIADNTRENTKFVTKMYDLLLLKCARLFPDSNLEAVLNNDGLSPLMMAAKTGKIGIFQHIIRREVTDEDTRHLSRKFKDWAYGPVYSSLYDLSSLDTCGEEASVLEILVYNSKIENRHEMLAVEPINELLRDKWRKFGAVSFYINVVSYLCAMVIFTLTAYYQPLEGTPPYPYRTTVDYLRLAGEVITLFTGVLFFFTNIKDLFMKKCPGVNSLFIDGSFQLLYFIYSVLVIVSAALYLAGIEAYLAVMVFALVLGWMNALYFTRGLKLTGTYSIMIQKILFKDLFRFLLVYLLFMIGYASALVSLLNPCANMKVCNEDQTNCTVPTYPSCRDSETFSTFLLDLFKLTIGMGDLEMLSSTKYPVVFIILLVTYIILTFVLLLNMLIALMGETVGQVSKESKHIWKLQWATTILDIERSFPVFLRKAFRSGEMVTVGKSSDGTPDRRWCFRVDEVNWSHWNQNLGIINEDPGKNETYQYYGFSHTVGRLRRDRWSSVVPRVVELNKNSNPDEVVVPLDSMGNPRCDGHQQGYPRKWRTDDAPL

SMILES	IC50 [1]	IC50 (1 μmol/L 4α-PDD, Fluo4-AM, read-out: TRPV4 inhibitory activity (IC50 value))
CON(C)C(=O)c1nc(C)c(-c2csc(NC(=O)Cc3c(F)cccc3F)n2)s1 [Compound I-105]	1000 to 8000 nM	–
Cc1nc(C(N)=O)sc1-c1csc(NC(=O)C2CC2(F)F)n1 (stereo not drawn) [Compound I-106]	1000 to 8000 nM	–
Cc1nc(C(=O)NC#N)sc1-c1csc(NC(=O)Cc2c(F)cccc2F)n1 [Compound I-108]	1000 to 8000 nM	–
Cc1nc(C(F)F)sc1-c1csc(NC(=O)C2CC2)n1 [Compound I-109]	1000 to 8000 nM	–
Cc1nc(C(F)F)sc1-c1csc(NC(=O)Cn2cc(Cl)cn2)n1 [Compound I-110]	100 to 1000 nM	–
Cc1nc(C(F)F)sc1-c1csc(NC(=O)C2CC(OCc3ccccc3)C2)n1 (stereo not drawn) [Compound I-111]	1000 to 8000 nM	–
Cc1nc(C(F)F)sc1-c1csc(NC(=O)C2CC2(F)F)n1 (stereo not drawn) [Compound I-112]	1000 to 8000 nM	–
CNC(=O)c1nc(C)c(-c2csc(NC(=O)Cc3c(F)cccc3F)n2)s1 [Compound I-113]	1000 to 8000 nM	–
Cc1nc(C(=O)N(C)C)sc1-c1csc(NC(=O)Cc2c(F)cccc2F)n1 [Compound I-114]	1000 to 8000 nM	–
Cc1nc(C)c(-c2csc(NC(=O)Cc3ccc(S(=O)(=O)C(F)(F)F)cc3)n2)s1 [Compound I-117]	100 to 1000 nM	–
Cc1nc(C)c(-c2csc(NC(=O)C3CC3(F)F)n2)s1 (stereo not drawn) [Compound I-120]	1000 to 8000 nM	–
Cc1nc(C)c(-c2csc(NC(=O)Cc3ccccc3C#N)n2)s1 [Compound I-121]	100 to 1000 nM	–
Cc1nc(C)c(-c2csc(NC(=O)Cn3cc(C#N)cn3)n2)s1 [Compound I-123]	1000 to 8000 nM	–
Cc1nc(C(=O)NCCO)sc1-c1csc(NC(=O)Cc2c(F)cccc2F)n1 [Compound I-125]	1000 to 8000 nM	–
Cc1nc(C(=O)NCCN(C)C)sc1-c1csc(NC(=O)Cc2c(F)cccc2F)n1 [Compound I-126]	1000 to 8000 nM	–
Cc1nc(C(C)(C)O)c(-c2csc(NC(=O)Cc3c(F)cccc3F)n2)s1 [Compound I-128]	100 to 1000 nM	–
Cc1nc(C)c(-c2csc(NC(=O)Cn3cc(Br)cn3)n2)s1 [Compound I-132]	< 100 nM	–
Cc1nc(C(O)CO)sc1-c1csc(NC(=O)Cc2c(F)cccc2F)n1 (stereo not drawn) [Compound I-133]	1000 to 8000 nM	–

SMILES	IC50 [1]	IC50 (1 μmol/L 4α-PDD, Fluo4-AM, read-out: TRPV4 inhibitory activity (IC50 value))
Cc1nc(C)c(-c2csc(NC(=O)Cc3cccc(C#N)c3)n2)o1 [Compound I-138]	1000 to 8000 nM	–
Cc1nc(C)c(-c2csc(NC(=O)Cc3ccc(S(=O)(=O)CC(F)(F)F)cc3)n2)s1 [Compound I-141]	< 100 nM	–
Cc1nc(C)c(-c2csc(NC(=O)Cn3cc(-c4ccc(Cl)cc4)cn3)n2)s1 [Compound I-147]	< 100 nM	–
Cc1nc(C)c(-c2csc(NC(=O)Cn3cc(-c4cccc(S(C)(=O)=O)c4)cn3)n2)s1 [Compound I-150]	< 100 nM	–
Cc1nc(C)c(-c2csc(NC(=O)Cn3cc(-c4ccc(S(C)(=O)=O)cc4)cn3)n2)s1 [Compound I-151]	100 to 1000 nM	–
Cc1nc(C)c(-c2csc(NC(=O)CN3CCC(O)(c4ccccc4)CC3)n2)s1 [Compound I-153]	1000 to 8000 nM	–
Cc1nc(C)c(-c2csc(NC(=O)CN3CCCC3c3ccccc3)n2)s1 (stereo not drawn) [Compound I-154]	100 to 1000 nM	–
Cc1nc(C)c(-c2csc(NC(=O)Cc3ccc(S(=O)(=O)N(C)c4ccccc4)cc3)n2)s1 [Compound I-159]	< 100 nM	–
Cc1nc(C)c(-c2csc(NC(=O)Cc3ccc(S(=O)(=O)N(C)c4cccc(Cl)c4)cc3)n2)s1 [Compound I-161]	< 100 nM	–
Cc1nc(C)c(-c2csc(NC(=O)Cc3ccc(S(=O)(=O)N(C)c4cccnc4)cc3)n2)s1 [Compound I-165]	100 to 1000 nM	–
Cc1nc(C)c(-c2csc(NC(=O)C3Cc4ccccc4N3C)n2)s1 (stereo not drawn) [Compound I-175]	100 to 1000 nM	–
Cc1nc(C)c(-c2csc(NC(=O)C3Cc4ccccc4N3)n2)s1 (stereo not drawn) [Compound I-177]	100 to 1000 nM	–
Cc1nc(C)c(-c2csc(NC(=O)[C@@H]3C[C@@H](c4ccccc4)CN3)n2)s1 [Compound I-178]	100 to 1000 nM	–
Cc1nc(C)c(-c2csc(NC(=O)[C@@H]3C[C@H](c4ccccc4)CN3)n2)s1 [Compound I-179]	1000 to 8000 nM	–
CCNC(=O)c1nc(C)sc1-c1csc(NC(=O)Cc2c(F)cccc2F)n1 [Compound I-181]	1000 to 8000 nM	–
Cc1nc(C(=O)NCCO)c(-c2csc(NC(=O)Cc3c(F)cccc3F)n2)s1 [Compound I-182]	1000 to 8000 nM	–
Cc1nc(C)c(-c2csc(NC(=O)Cn3cc(C4(O)CCCCC4)nn3)n2)s1 [Compound I-189]	1000 to 8000 nM	–

Next, values leading:

IC50 [1]	IC50 (1 μmol/L 4α-PDD, Fluo4-AM, read-out: TRPV4 inhibitory activity (IC50 value))	SMILES
< 100 nM	–	Cc1nc(C)c(-c2csc(NC(=O)Cc3ccc(C(F)(F)F)cn3)n2)s1 [Compound I-104]
1000 to 8000 nM	–	Cc1nc(C(=O)NS(C)(=O)=O)sc1-c1csc(NC(=O)Cc2c(F)cccc2F)n1 [Compound I-115]
100 to 1000 nM	–	Cc1nc(C)c(-c2csc(NC(=O)Cc3ccc(C(F)(F)F)cn3)n2)s1 [Compound I-118]
1000 to 8000 nM	–	Cc1nc(C)c(-c2csc(NC(=O)Cc3ccc(S(C)(=O)=O)cc3)n2)s1 [Compound I-119]
100 to 1000 nM	–	Cc1nc(C)c(-c2csc(NC(=O)Cc3ccc(S(=O)(=O)C(C)C)cc3)n2)s1 [Compound I-122]
< 100 nM	–	Cc1nc(C)c(-c2csc(NC(=O)Cn3cc(C(F)(F)F)cn3)n2)s1 [Compound I-124]
100 to 1000 nM	–	Cc1nc(C(N)=O)sc1-c1csc(NC(=O)Cn2cc(Cl)cn2)n1 [Compound I-127]
100 to 1000 nM	–	CC(=O)c1nc(C)sc1-c1csc(NC(=O)Cc2c(F)cccc2F)n1 [Compound I-129]
100 to 1000 nM	–	Cc1nc(C(C)O)c(-c2csc(NC(=O)Cc3c(F)cccc3F)n2)s1 (stereo not drawn) [Compound I-130]
< 100 nM	–	Cc1nc(C)c(-c2csc(NC(=O)Cn3cc(-c4ccccc4)cn3)n2)s1 [Compound I-134]
1000 to 8000 nM	–	Cc1nc(C(O)CC(=O)O)sc1-c1csc(NC(=O)Cc2c(F)cccc2F)n1 (stereo not drawn) [Compound I-135]
< 100 nM	–	Cc1nc(CO)sc1-c1csc(NC(=O)Cn2cc(C(F)(F)F)cn2)n1 [Compound I-136]
100 to 1000 nM	–	Cc1nc(C)c(-c2csc(NC(=O)Cc3cccc(OC(F)(F)F)c3)n2)o1 [Compound I-137]
100 to 1000 nM	–	Cc1nc(C)c(-c2csc(NC(=O)Cc3ccc(C(F)(F)F)cc3)n2)o1 [Compound I-139]
1000 to 8000 nM	–	Cc1nc(C)c(-c2csc(NC(=O)Cn3cc(Cl)cn3)n2)o1 [Compound I-140]
< 100 nM	–	Cc1nc(CO)sc1-c1csc(NC(=O)Cc2ccc(S(=O)(=O)C(F)(F)F)cc2)n1 [Compound I-142]
100 to 1000 nM	–	Cc1nc(C)c(-c2csc(NC(=O)Cc3ccc(S(=O)(=O)CC(F)F)cc3)n2)s1 [Compound I-143]
100 to 1000 nM	–	Cc1nc(C)c(-c2csc(NC(=O)CN3CCN(c4ccccc4)CC3)n2)s1 [Compound I-144]
< 100 nM	–	Cc1nc(C)c(-c2csc(NC(=O)Cn3cc(-c4ccccc4Cl)cn3)n2)s1 [Compound I-145]
< 100 nM	–	Cc1nc(C)c(-c2csc(NC(=O)Cn3cc(-c4cccc(Cl)c4)cn3)n2)s1 [Compound I-146]
100 to 1000 nM	–	Cc1nc(C)c(-c2csc(NC(=O)Cn3cc(-c4cccnc4)cn3)n2)s1 [Compound I-148]
< 100 nM	–	Cc1nc(C)c(-c2csc(NC(=O)Cn3cc(-c4cccc(N(C)C)c4)cn3)n2)s1 [Compound I-149]
100 to 1000 nM	–	Cc1nc(C)c(-c2csc(NC(=O)CN3CCC(c4ccccc4)CC3)n2)s1 [Compound I-152]

IC50 [1]	IC50 (1 μmol/L 4α-PDD, Fluo4-AM, read-out: TRPV4 inhibitory activity (IC50 value))	SMILES
100 to 1000 nM	–	Cc1nc(C)c(-c2csc(NC(=O)CN3CCC(c4ccccc4)C3)n2)s1 (stereo not drawn) [Compound I-155]
< 100 nM	30 nM	Cc1nc(C)c(-c2csc(NC(=O)Cc3ccc(S(=O)(=O)N4CCCCC4)cc3)n2)s1 [Compound I-156]
100 to 1000 nM	–	Cc1nc(C)c(-c2csc(NC(=O)Cc3ccc(S(=O)(=O)N4CCOCC4)cc3)n2)s1 [Compound I-157]
< 100 nM	–	COc1ccc(N(C)S(=O)(=O)c2ccc(CC(=O)Nc3nc(-c4sc(C)nc4C)cs3)cc2)cc1 [Compound I-158]
< 100 nM	–	Cc1nc(C)c(-c2csc(NC(=O)Cc3ccc(S(=O)(=O)N(C)c4ccc(Cl)cc4)cc3)n2)s1 [Compound I-160]
< 100 nM	–	Cc1nc(C)c(-c2csc(NC(=O)Cc3ccc(S(=O)(=O)N(C)c4ccccc4Cl)cc3)n2)s1 [Compound I-162]
< 100 nM	–	Cc1nc(C)c(-c2csc(NC(=O)Cc3ccc(S(=O)(=O)N(C)c4ccc(C#N)cc4)cc3)n2)s1 [Compound I-163]
100 to 1000 nM	–	Cc1nc(C)c(-c2csc(NC(=O)Cc3ccc(S(=O)(=O)Nc4ccccc4)cc3)n2)s1 [Compound I-164]
100 to 1000 nM	–	Cc1nc(C)c(-c2csc(NC(=O)Cn3cc(-c4ccccc4S(C)(=O)=O)cn3)n2)s1 [Compound I-166]
1000 to 8000 nM	–	Cc1nc(C)c(-c2csc(NC(=O)Cn3cc(-c4cncnc4)cn3)n2)s1 [Compound I-167]
100 to 1000 nM	–	Cc1nc(C)c(-c2csc(NC(=O)Cn3cc(-c4ccncc4)cn3)n2)s1 [Compound I-168]
< 100 nM	–	Cc1nc(C)c(-c2csc(NC(=O)Cn3cc(-c4ccccc4N(C)C)cn3)n2)s1 [Compound I-169]
100 to 1000 nM	–	Cc1nc(C)c(-c2csc(NC(=O)CN3CCOC(c4ccccc4)C3)n2)s1 (stereo not drawn) [Compound I-170]
100 to 1000 nM	–	Cc1nc(CO)sc1-c1csc(NC(=O)CN2CCC(c3ccccc3)CC2)n1 [Compound I-171]
100 to 1000 nM	–	Cc1nc(CO)sc1-c1csc(NC(=O)C2CC2(F)F)n1 (stereo not drawn) [Compound I-173]
< 100 nM	–	O=C(Cc1ccc(S(=O)(=O)C(F)(F)F)cc1)Nc1nc(-c2sc(CO)nc2CO)cs1 [Compound I-174]
< 100 nM	–	Cc1nc(C)c(-c2csc(NC(=O)C3Cc4ccccc4N3C(=O)C(F)(F)F)n2)s1 (stereo not drawn) [Compound I-176]
< 100 nM	–	Cc1nc(C)c(-c2csc(NC(=O)C3Cc4ccccc4O3)n2)s1 (stereo not drawn) [Compound I-180]
100 to 1000 nM	–	Cc1nc(C)c(-c2csc(NC(=O)CN3CCC[C@@H](c4ccccc4)C3)n2)s1 [Compound I-183]
< 100 nM	–	Cc1nc(C)c(-c2csc(NC(=O)CN3CCC[C@H](c4ccccc4)C3)n2)s1 [Compound I-184]
< 100 nM	–	Cc1nc(CO)sc1-c1csc(NC(=O)C2CCN(c3ccccc3)C2)n1 (stereo not drawn) [Compound I-185]
1000 to 8000 nM	–	Cc1nc(C(=O)NCCN(C)C)c(-c2csc(NC(=O)Cc3c(F)cccc3F)n2)s1 [Compound I-188]
